Test results taken from article PMC10388311, “Innovative Strategy toward Mutant CFTR Rescue in Cystic Fibrosis: Design and Synthesis of Thiadiazole Inhibitors of the E3 Ligase RNF5” (Journal of Medicinal Chemistry, 2023).
≈ marks a conversion by molar mass, not a printed value. Entries after “also recorded” stand apart in the source; their conditions may differ. Where two headings read alike, the source gives them in different places.

Legend:
[1] = target: F508del-CFTR in CFBE41o– cells (Homo sapiens, UniProt Q99942); assay: HS-YFP microfluorimetric assay of F508del-CFTR rescue (corrector activity); assay type: cell-based; conditions: for F508del-CFTR corrector activity compared with inh-2 (CFTR activity, primary screen): CFBE41o– cells co-expressing F508del-CFTR and HS-YFP, 24 h treatment, Figure 5; for improvement of the rescue elicited by the double combination VX-661 + VX-445 / mutant CFTR activity upon co-treatment with VX-809 or VX-445: RNF5 inhibitor 5 μM; for improvement of the rescue elicited by the double combination VX-661 + VX-445: VX-661 + VX-445 10 μM + 3 μM; for mutant CFTR activity upon co-treatment with VX-809 or VX-445: VX-809 3 μM, VX-445 3 μM
How it was run: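 CFBE41o– cells stably co-expressing F508del-CFTR and HS-YFP were treated with compounds 24 h after seeding; VX-809 (1 μM) served as positive control. F508del-CFTR was stimulated with forskolin (20 μM) plus VX-770 (1 μM) for 25 min before iodide injection. I– influx rate was taken as initial slope (dF/dt) from an exponential fit of YFP quenching.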

[2] = Solubility and aggregation in PBS buffer by NMR (SPAM filter, 1H 1D and WaterLOGSY); assay type: physicochemical; conditions: for solubility and aggregation in PBS (in words): NMR; for solubility at 20 µM / solubility at 50 µM / solubility at 100 µM / aggregation in PBS buffer by NMR / solubility: PBS pH 7.5, 1 μM ZnCl2, 1 mM DTT, 10% D2O, 1% DMSO-d6; for solubility at 100 µM: theoretical concentration 100 μM; for aggregation in PBS buffer by NMR: WaterLOGSY
Text: Under these circumstances, it was decided to explore the solubility of all the synthetized compounds, regardless of their biological activities, to find a suitable candidate for the validation of our working hypothesis, i.e., that the compounds exert their activities by directly binding to RNF5. For that, we first calculated the predicted octanol/water partition coefficient (log Po/w) and the predicted aqueous solubility (log S) of all the analogues by QikProp (Schrödinger Release 2022-1: QikProp, Schrödinger, LLC, New York, NY, 2021, Table S1). […] To shrink down the number of compounds for solubility experiments, just the ones that had −2.0 < log Po/w < 6 and −6.5 < log S <0.5 values were selected. Among them, the PBS solubility was determined for five representative analogues: (i) 12 and 29 bearing different substituents on the benzyl group A; (ii) 34 and 40 showing the replacement of rings B and C with pyridine-4-yl moieties; (iii) 42 in which the N-phenylbenzamidine portion was replaced with a pyridine-2-yl moiety (Table 1).
All the NMR experiments were recorded at 298 K using a 5 mm CryoProbe QCI ^1H/^19F–^13C/^15N–D quadruple resonance, a shielded z-gradient coil, and an automatic sample changer SampleJet NMR system with temperature control. The solubility of the compounds were evaluated by ^1H 1D experiments and aggregation by WaterLOGSY, testing the compounds in buffer PBS pH 7,5, 1 μM ZnCl2, 1 mM DTT, 10% D2O (for the lock signal), and 1% DMSO-d6 at the theoretical concentrations of 20, 50, and 100 μM in the presence of 200 μM 4-trifluoromethyl benzoic acid (internal reference). For all samples, a 1D ^1H NMR experiment was recorded, the water suppression was obtained using the standard NOESY (nuclear Overhauser effect spectroscopy) preset Bruker pulse sequence, with 64k data points, a spectral width (sw) of 30 ppm, 64 scans, acquisition time (aq) of 1.835 s, a relaxation delay (d1) of 4 s, and a mixing time of 10 ms. […] The data were multiplied by an exponential window function with 1 Hz line broadening prior to Fourier transformation. For NMR binding experiments, the compounds were tested at 50 μM in buffer PBS pH 7.5, 1 μM ZnCl2, 1 mM DTT, 10% D2O (for the lock signal), and 1% DMSO-d6 in the absence and in the presence of 3 μM RNF5. WaterLOGSY experiments were recorded with the same parameters used in solubility assays, but with a higher number of scans (512); STD experiments were recorded with 128 scans, with two on (0.7 and 1 ppm) and one off (−50 ppm) resonance spectra, a Gaussian-shaped train pulse of 50 ms each was employed, with a total saturation time of the protein envelope of 5, 3, 2, 1.5, 1, or 0.5 s. A T1ρ filter of 2 ms was employed in STD experiments to eliminate the background signals from the protein. The STD spectrum was obtained by subtraction of the on-resonance spectrum from the off-resonance spectrum. Subtraction was performed by phase cycling to minimize artifacts arising from magnet and temperature instabilities.

[3] = PBS buffer, aqueous buffer, kinetic from dmso stock, theoretical concentration 20 μM
[4] = PBS buffer, aqueous buffer, kinetic from dmso stock, theoretical concentration 50 μM
[5] = PBS buffer, aqueous buffer, kinetic from dmso stock
[6] = PBS buffer, aqueous buffer, kinetic from dmso stock, theoretical concentration 20 μM, read-out: solubility in PBS buffer by NMR, 20 μM
[7] = theoretical concentration 50 μM

F508del-CFTR in CFBE41o– cells, sequence (Q99942 2-180): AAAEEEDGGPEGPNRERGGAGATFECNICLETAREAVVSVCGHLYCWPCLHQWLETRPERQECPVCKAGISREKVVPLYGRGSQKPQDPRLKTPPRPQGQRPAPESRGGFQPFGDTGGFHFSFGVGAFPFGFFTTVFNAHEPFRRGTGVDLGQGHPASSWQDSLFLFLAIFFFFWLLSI
F508del-CFTR in CFBE41o– cells, sequence (P13569 with tags, fused parts or gaps DEL508-508 partner): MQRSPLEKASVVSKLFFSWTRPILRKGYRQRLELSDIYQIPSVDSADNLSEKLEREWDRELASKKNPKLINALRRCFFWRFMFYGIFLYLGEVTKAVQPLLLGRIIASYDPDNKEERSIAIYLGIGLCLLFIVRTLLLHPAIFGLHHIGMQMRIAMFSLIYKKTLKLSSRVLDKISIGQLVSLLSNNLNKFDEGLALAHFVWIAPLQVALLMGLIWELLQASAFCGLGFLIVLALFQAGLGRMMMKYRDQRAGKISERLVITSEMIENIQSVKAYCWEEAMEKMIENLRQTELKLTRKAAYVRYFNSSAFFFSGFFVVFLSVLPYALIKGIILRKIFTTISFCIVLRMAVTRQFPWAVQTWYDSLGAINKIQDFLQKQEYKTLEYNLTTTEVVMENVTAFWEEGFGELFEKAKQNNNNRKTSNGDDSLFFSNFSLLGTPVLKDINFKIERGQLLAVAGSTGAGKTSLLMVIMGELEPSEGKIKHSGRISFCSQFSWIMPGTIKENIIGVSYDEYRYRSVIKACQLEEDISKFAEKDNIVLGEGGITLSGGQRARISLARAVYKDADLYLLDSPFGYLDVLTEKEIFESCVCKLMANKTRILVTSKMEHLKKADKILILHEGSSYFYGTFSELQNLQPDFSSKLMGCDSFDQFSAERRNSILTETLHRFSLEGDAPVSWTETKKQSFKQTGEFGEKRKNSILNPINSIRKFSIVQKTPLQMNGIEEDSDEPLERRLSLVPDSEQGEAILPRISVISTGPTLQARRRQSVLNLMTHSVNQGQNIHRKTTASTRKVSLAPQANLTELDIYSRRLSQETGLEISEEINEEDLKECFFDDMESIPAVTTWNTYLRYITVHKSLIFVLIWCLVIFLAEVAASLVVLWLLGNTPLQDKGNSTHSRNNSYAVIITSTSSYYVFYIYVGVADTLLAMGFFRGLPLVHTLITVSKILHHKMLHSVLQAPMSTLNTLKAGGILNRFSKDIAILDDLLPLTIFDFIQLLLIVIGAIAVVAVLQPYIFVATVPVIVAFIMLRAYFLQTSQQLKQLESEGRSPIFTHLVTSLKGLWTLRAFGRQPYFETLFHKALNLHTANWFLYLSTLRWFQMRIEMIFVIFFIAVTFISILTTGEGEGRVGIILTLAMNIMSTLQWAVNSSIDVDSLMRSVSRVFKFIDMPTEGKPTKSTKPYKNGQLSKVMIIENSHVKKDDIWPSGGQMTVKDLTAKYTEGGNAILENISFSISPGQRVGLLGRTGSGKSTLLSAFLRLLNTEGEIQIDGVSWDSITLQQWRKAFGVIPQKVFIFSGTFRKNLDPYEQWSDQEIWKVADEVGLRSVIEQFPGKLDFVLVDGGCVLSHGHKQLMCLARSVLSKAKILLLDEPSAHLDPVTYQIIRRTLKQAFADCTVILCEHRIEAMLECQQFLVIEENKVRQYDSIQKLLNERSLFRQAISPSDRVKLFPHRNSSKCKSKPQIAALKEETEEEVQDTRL

Row | solubility at 20 µM [2, 3] [µM] | solubility at 50 µM [2, 4] [µM] | solubility at 100 µM [2, 5] [µM] | aggregation in PBS buffer by NMR [2] | solubility [2, 6] [µM] | solubility at 50 µM [2, 7] [µM] | solubility at 100 µM [2] [µM] | solubility ([2]; PBS buffer, aqueous buffer, kinetic from dmso stock, theoretical concentration 50 μM, read-out: solubility in PBS buffer by NMR, 50 μM) [µM] | SMILES | F508del-CFTR corrector activity compared with inh-2 (CFTR activity, primary screen) [1] | solubility and aggregation in PBS (in words) ([2]; PBS buffer) | F508del-CFTR activity in cells transfected with NT or RNF5 siRNA ([1]; CFBE41o– cells, 16 5 μM alone or combined with VX-661 + VX-445 (10 μM + 3 μM), 24 h) | improvement of the rescue elicited by the double combination VX-661 + VX-445 ([1]; CFBE41o– cells, 24 h) | mutant CFTR activity upon co-treatment with VX-809 or VX-445 ([1]; CFBE41o– cells, 24 h)
1 | 20 (≈ 8.57 µg/mL) | 50 (≈ 21.4 µg/mL) | 100 (≈ 42.9 µg/mL) | no |  |  |  |  | Cc1ns/c(=N\C(=N\c2ccccc2)c2ccccc2)n1Cc1ccc(C(=O)O)cc1 [Compound 12, 4-(((Z)-3-Methyl-5-(((E)-phenyl(phenylimino)methyl)imino)-1,2,4-thiadiazol-4(5H)-yl)methyl)benzoic Acid] | reduced potency; also recorded: lower F508del-CFTR activity compared to inh-2 | no aggregation and solubility suitable for in vitro/biophysical binding experiments |  |  | 
2 |  |  |  | no | < 5 | <5 | <5 |  | COc1cccc(Cn2c(C)ns/c2=N\C(=N\c2ccccc2)c2ccccc2)c1 [Compound 16, (E)-N-((Z)-4-(3-Methoxybenzyl)-3-methyl-1,2,4-thiadiazol-5(4H)-ylidene)-N′-phenylbenzimidamide] | increased activity; also recorded: greater F508del-CFTR rescue than inh-2 |  | increased the F508del-CFTR activity only in cells transfected with NT siRNA, but not in those transfected with RNF5 siRNA | able to further improve the rescue | significantly increased mutant CFTR activity
3 | 20 (≈ 7.71 µg/mL) |  |  | no |  |  |  | 30 (≈ 11.6 µg/mL) | Cc1ns/c(=N\C(=N\c2ccncc2)c2ccccc2)n1Cc1ccccc1 [Compound 40, (E)-N-((Z)-4-Benzyl-3-methyl-1,2,4-thiadiazol-5(4H)-ylidene)-N′-(pyridin-4-yl)benzimidamide] | inactive analogs; also recorded: almost inactive as CFTR correctors | no aggregation and solubility suitable for in vitro/biophysical binding experiments |  |  | 
4 | 20 (≈ 5.65 µg/mL) | 40 (≈ 11.3 µg/mL) | 5 (≈ 1.41 µg/mL) | no |  |  |  |  | Cc1ns/c(=N\c2ccccn2)n1Cc1ccccc1 [Compound 42, (Z)-4-Benzyl-3-methyl-N-(pyridin-2-yl)-1,2,4-thiadiazol-5(4H)-imine] | inactive compounds; also recorded: almost inactive as CFTR correctors | no aggregation and solubility suitable for in vitro/biophysical binding experiments |  |  | 
5 |  |  |  | no | < 5 | <5 | <5 |  | Cc1ns/c(=N\C(=N\c2ccccc2)c2ccccc2)n1Cc1ccccc1 [inh-2, reference compound] |  |  |  | only analogue 16 was able to further improve the rescue | significantly increased mutant CFTR activity
